Values quoted from earlier work as cited in US11612595B2, “Compositions and methods for treating rheumatoid arthritis” (Generos Biopharma Ltd., priority 2017, dated 2023).

Tests used:
STAT5 [1] = target: T1, STAT5 (Homo sapiens, UniProt P42229+P51692); set-up: endogenous in cells; host or cells: K562 nuclear extract; settings: K562 nuclear extract; cited from earlier work
T1 sequence (P42229 1-794): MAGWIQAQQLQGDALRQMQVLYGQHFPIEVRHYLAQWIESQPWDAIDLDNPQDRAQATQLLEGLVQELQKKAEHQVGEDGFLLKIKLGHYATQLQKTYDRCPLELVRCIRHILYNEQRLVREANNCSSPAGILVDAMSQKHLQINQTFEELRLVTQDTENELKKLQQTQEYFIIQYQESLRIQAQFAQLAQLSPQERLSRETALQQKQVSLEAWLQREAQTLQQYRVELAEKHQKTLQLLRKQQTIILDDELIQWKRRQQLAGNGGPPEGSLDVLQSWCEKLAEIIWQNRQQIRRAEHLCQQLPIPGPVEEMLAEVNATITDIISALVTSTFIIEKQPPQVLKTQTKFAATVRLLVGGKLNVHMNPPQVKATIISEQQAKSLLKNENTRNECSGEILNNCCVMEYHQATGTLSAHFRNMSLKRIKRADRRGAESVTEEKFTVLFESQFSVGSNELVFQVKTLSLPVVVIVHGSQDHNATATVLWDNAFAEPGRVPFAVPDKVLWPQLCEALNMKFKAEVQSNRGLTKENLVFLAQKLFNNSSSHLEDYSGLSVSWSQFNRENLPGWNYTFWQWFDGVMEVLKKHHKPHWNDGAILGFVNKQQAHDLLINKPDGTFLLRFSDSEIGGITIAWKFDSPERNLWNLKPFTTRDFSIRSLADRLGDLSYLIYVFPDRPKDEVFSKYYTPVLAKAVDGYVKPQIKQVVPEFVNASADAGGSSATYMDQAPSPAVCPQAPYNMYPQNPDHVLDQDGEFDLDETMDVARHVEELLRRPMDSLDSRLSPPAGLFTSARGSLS
T1 sequence (P51692 1-787): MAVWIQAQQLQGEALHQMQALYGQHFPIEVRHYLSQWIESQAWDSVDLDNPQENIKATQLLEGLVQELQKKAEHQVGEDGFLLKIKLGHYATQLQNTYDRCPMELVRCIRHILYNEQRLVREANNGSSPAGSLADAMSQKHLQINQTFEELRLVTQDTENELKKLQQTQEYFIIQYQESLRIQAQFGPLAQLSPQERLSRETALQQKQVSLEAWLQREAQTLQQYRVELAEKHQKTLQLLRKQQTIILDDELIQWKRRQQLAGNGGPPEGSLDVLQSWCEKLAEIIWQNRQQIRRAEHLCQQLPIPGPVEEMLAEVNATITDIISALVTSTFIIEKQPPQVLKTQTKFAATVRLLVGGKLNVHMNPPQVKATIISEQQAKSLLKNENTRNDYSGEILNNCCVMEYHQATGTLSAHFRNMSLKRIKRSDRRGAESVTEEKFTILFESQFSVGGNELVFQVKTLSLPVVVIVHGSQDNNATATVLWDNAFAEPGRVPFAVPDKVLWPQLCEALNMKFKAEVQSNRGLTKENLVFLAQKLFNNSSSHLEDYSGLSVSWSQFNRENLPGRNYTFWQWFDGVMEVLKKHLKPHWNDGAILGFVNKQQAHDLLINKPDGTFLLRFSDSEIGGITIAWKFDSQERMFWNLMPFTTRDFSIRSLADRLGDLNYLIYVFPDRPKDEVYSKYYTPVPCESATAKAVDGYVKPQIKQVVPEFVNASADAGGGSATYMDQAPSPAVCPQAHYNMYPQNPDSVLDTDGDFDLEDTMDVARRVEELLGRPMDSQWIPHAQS

STAT5 [2] = target: T1, STAT5; set-up: endogenous in cells; settings: Daudi cells; cited from earlier work
SH2 domain of STAT3 = SH2 domain of STAT3 (Homo sapiens, UniProt P40763); settings: read-out: IC50 towards the SH2 domain of STAT3; cited from earlier work
STAT1 = target: T2, STAT1 (Homo sapiens, UniProt P42224); settings: K562 cells, 10 μM 1 h pretreatment; cited from earlier work
T2 sequence (P42224 1-750): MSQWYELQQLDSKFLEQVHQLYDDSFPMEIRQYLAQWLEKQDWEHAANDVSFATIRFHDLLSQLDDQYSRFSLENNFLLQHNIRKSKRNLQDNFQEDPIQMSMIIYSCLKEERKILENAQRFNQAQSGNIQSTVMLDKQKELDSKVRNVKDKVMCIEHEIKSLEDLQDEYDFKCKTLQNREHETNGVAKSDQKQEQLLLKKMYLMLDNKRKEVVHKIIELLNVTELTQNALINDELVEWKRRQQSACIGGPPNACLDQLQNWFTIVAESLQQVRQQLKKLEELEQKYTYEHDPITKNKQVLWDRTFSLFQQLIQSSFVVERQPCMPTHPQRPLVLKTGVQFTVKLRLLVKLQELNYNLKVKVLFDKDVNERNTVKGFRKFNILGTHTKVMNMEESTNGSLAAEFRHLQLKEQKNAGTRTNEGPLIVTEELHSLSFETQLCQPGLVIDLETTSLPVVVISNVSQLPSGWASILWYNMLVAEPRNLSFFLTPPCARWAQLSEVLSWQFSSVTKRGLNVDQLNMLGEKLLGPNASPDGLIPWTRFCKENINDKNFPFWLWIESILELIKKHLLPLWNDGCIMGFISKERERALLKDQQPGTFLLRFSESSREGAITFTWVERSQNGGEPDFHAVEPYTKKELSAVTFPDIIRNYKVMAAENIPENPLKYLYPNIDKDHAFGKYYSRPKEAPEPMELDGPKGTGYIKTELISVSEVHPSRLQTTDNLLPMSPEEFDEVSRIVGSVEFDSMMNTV

STAT5 [3] = target: T1, STAT5; set-up: in Bcr-Abl+ K562 and KU812 cultures; endogenous in cells; host or cells: K562 and KU812 cells; settings: 5 to 10 μM for 3 h; Bcr-Abl+ K562 and KU812 cultures; cited from earlier work

SH2 domain of STAT3, sequence (P40763 whole entry, the tested form may be a part): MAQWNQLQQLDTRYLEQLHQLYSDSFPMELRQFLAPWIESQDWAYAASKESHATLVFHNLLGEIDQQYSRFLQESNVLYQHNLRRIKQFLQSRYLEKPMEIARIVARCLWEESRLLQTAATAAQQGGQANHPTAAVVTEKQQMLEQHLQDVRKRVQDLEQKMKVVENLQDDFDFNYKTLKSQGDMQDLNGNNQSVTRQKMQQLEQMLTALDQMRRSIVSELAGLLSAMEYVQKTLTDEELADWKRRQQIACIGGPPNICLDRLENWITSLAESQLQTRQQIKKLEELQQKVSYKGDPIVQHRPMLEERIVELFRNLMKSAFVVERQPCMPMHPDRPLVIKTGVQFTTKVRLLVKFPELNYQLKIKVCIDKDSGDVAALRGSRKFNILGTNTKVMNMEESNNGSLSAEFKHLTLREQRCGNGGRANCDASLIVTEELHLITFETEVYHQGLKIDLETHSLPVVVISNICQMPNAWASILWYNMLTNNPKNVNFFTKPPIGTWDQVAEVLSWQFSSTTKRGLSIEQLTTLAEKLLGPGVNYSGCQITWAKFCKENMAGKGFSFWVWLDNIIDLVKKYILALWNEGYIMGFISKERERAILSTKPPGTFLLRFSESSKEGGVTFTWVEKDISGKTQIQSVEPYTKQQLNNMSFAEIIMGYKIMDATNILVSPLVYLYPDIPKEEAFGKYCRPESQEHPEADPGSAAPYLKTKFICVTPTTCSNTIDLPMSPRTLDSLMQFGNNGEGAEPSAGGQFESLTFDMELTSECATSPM

SMILES | STAT5/STAT5 DNA binding activity (STAT5 [1]) | IFN-α-stimulated STAT5 tyrosine phosphorylation (STAT5 [2]) | IC50 (SH2 domain of STAT3) | IFNα-stimulated STAT1 phosphorylation (STAT1) | constitutive STAT5 Tyr694 phosphorylation (STAT5 [3])
O=C(N/N=C/c1coc2ccccc2c1=O)c1cccnc1 [nicotinohydrazide, N′-((4-Oxo-4H-chromen-3-yl)methylene)nicotinohydrazide] | blocks | inhibit | > 500 µM | – | –
O=c1[nH]c2ccccc2n1C1CCN(CCCC(c2ccc(F)cc2)c2ccc(F)cc2)CC1 [pimozide, 1-[1-[4,4-bis(4-fluorophenyl)butyl]-4-piperidinyl]-1,3-dihydro-2H-benzimidazole-2-one] | – | – | – | little activity | inhibits
